Data published in the METLIN SMRT retention time set (Domingo-Almenara et al. 2019).

Experiment: gradient 5% acetonitrile 3 min, to 50% in 2 min, to 85% in 15 min, held 3 min, 100 µL/min
Details: column: Zorbax Extend-C18 2.1 x 50 mm; eluents: water / acetonitrile, 0.1% formic acid
How it was run: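 The mobile phases were water and acetonitrile, each with 0.1% formic acid, pumped at 100 μL/min through a Zorbax Extend-C18 column (2.1 × 50 mm, 1.8 μm). Pure standards were injected as mixtures of ~100 molecules and detected by a quadrupole time-of-flight mass spectrometer in positive and negative ionization mode. Retention time came from computationally picked adduct peaks, each inspected by hand.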

SMILES	RP-LC retention time [s]
Cc1nc(-c2csc(S(=O)(=O)N3CCC(C(=O)NCc4ccccn4)CC3)c2)no1	636
Cc1cc(NC(=O)c2ncccn2)no1	577
CC(C)NC(=O)C1CCCN(C(=O)Nc2ccc(S(=O)(=O)N3CCCCCC3)s2)C1 (stereo not given)	827
COc1cc(NC(=O)Cn2nc3c4cc(C)ccc4ncn3c2=O)cc(OC)c1	682
COc1ccc2c(c1)C1(CCN(C(=O)NC(C)(C)C)C1)C(=O)N2 (stereo not given)	695
CCN(CC)c1nc(-c2ccccc2F)nc2ccccc12	700
COc1ccc(CCN2CN=C(Nc3nc(C)c4cc(C)ccc4n3)NC2)cc1OC	722
CCc1c(C2CCN(C(=O)Nc3ccc(OC)cc3)CC2)noc1N	693
CC1=NN(CCC#N)C(=O)/C1=C\c1ccc(N(C)C)cc1	691
O=C(Nc1nccs1)C1CCCN(c2ncnc3c2nc2n3CCCCC2)C1 (stereo not given)	730
CCC(C)NC(=O)c1c(C)sc2ccn(CC)c(=O)c12 (stereo not given)	709
Cc1nnc2ccc(N3CCC(C)CC3)nn12	1000
COc1ccc(Cl)cc1S(=O)(=O)NCCn1nc(C)cc1C	719
COC(=O)c1c(C)[nH]c(C(=O)N2CCC(CC(=O)N3CCCCC3)CC2)c1C	716
COc1ccc2[nH]c3c(c2c1)CCN(C(=O)CC(C)C)C31C(=O)N(C)c2ccccc21 (stereo not given)	888
COc1cc(OC)cc(-c2nnc(Cc3nc(-c4ccc5c(c4)OCO5)no3)o2)c1	978
COC(=O)c1ccc(C(=O)NCC2CCS(=O)(=O)C2)cc1 (stereo not given)	620
Cn1c(=O)c2cc(C(=O)NCc3ccc(Cl)cc3)sc2n(C)c1=O	800
O=C(CCCn1nnc2ccccc2c1=O)Nc1nc2ccccc2[nH]1	570
CC(C)n1nc(CNC(=O)c2ccco2)c2ccccc21	788
C=CCn1c(=O)c2ccccc2n(Cc2nc(-c3ccc(OC)c(OC)c3)no2)c1=O	937
COc1ccc(-c2nc(CN3C(=O)C(O)(c4cccc(F)c4)c4ccccc43)c(C)o2)cc1 (stereo not given)	1040
CCc1cccc(NS(=O)(=O)c2cc3n(c2)CCN(CCOC)C3=O)c1	750
O=C(NCc1ccc2c(c1)OCO2)C1CCN(c2cc(N3CCCCC3)ncn2)CC1	715
COc1ccc(Cc2nnc(N)o2)cc1	596
COCCn1c(C)c(C)c(S(=O)(=O)c2ccc(F)cc2)c1NC(=O)C1CCCO1 (stereo not given)	839

SMILES	RP-LC retention time [s]
COc1ccc(OC)c(-c2ccc(=O)n(CCc3nc(-c4cccc(F)c4)no3)n2)c1	974
Cc1ccc(C)c(NC(=O)C2CCCN2S(=O)(=O)c2ccc3c(c2)CCCC(=O)N3)c1 (stereo not given)	810
Cc1ccc(S(=O)(=O)N2CCCC(CCC(=O)O)C2)cc1 (stereo not given)	812
COCc1nc(C2CCN(S(=O)(=O)Cc3ccccc3)C2)no1 (stereo not given)	795
CC(C)OCCCNC(=O)c1ccc2c(c1)NC(=O)C(C(C)C)N2 (stereo not given)	688
Cc1cccc(C)c1-n1nnc(C(=O)NCC2CCCO2)c1C (stereo not given)	754
CC(C)C(=O)n1nc(-c2ccccc2Cl)nc1N	898
O=S(=O)(c1cccnc1)N1CCCC(c2nnc(C(F)(F)F)o2)C1 (stereo not given)	747
CCc1cc(C(=O)NCc2ccc(C)o2)nc2cc(-c3ccco3)nn12	767
CNC(=O)[C@@H]1CN(C(=O)NCc2ccco2)C[C@H]1c1nc(C)no1	602
COc1ccc(OC)c(NC(=O)Cn2ncc3c(c2=O)N(C2CC2)C(=O)CS3)c1	724
O=C(CCc1cc(Cl)no1)NCCc1noc(C2CC2)n1	693
COCc1c(C(=O)O)nnn1-c1ccc(OC)cc1	677
Fc1ccc(OCc2nnc3sc(COc4ccccc4)nn23)cc1	938
Cc1noc(-c2nc(-c3ccncc3)no2)n1	703
CCc1nc2cc(-c3noc(-c4ccccc4OC)n3)ccc2o1	1080
c1cc2c(cc1-c1nnc(C3CC3)o1)OCO2	781
COc1ccc(N2CC(c3noc(-c4ccccc4Cl)n3)CC2=O)cc1OC (stereo not given)	880
COc1ccc(CN(CCN(C)C)c2ncccn2)cc1	707
COC(=O)c1ccc(S(=O)(=O)NCc2nc(C)no2)cc1	659
CCCN1CCCCc2cc(C(=O)N(CC)C(C)C)sc21	1240
O=C(CCc1nnn2c1CN(C(=O)Nc1ccccc1F)CC2)NC1CC1	618
COc1ccccc1NC(=O)Cn1c(C)cc(-c2nnc(-c3ccccc3)o2)c1C	988
CCOC(=O)C1=C(C)NC2=C(C(=O)c3ccccc32)C1c1ccc(OCC)cc1 (stereo not given)	718
Cc1cc(C)n2nc(SCC(=O)Nc3ccc(F)cc3)nc2n1	724

The remaining lines, values ahead:

RP-LC retention time [s]	SMILES
803	Cc1ccc(-n2nc(N3CCN(C(=O)Nc4ccc(F)cc4)CC3)ccc2=O)cc1
599	CC12CC(NC(=O)N1c1ccc(C(=O)N3CCN(c4ccccn4)CC3)cc1)c1ccccc1O2 (stereo not given)
1120	N#Cc1cccc(NC(=O)C2CCCN(S(=O)(=O)c3cc(-c4noc(C5CCC5)n4)cs3)C2)c1 (stereo not given)
722	CCC(=O)N1CCc2cc(N3CC(C(=O)NCc4ccccc4F)CC3=O)ccc21 (stereo not given)
659	Cc1nc(CCNC(=O)[C@H]2CCCN2C(=O)c2ccccc2Cl)cs1
1230	O=C(NCc1ccc(Cl)cc1)c1c(O)c2cccnc2n(-c2ccc(F)cc2)c1=O
945	Cc1ccc2c(c1)N(S(C)(=O)=O)CCC(C(=O)NCc1ccccc1Cl)O2 (stereo not given)
775	CCNc1cc(C)nc(N2CCN(C(=O)c3cccc(Br)c3)CC2)n1
772	CC(C)c1ccc(S(=O)(=O)N(CC(=O)N2CCNCC2)CC(C)c2ccccc2)cc1 (stereo not given)
1020	COc1ccc(C)cc1NC(=O)N(C)CCc1noc(COc2cccc(C)c2)n1
1040	CCOc1ccc(N2C=C(C#N)S(=O)(=O)c3ccc(Cl)cc32)cc1
1350	Cc1ccc(-c2csc(-n3nc(C)c(CC(=O)Nc4ccc(Br)cc4)c3C)n2)cc1
568	COc1ccc2[nH]c(=O)c(CCC(=O)N3CCN(c4ccccn4)CC3)cc2c1
1030	Cc1cc(C(=O)Nc2ccc(N3CCOCC3)cc2)nc2cc(-c3ccsc3)nn12
775	COc1cccc(S(=O)(=O)N2CCC(n3cnnc3-c3ccccc3)CC2)c1
707	O=C(CCCc1nnc2c(=O)n(-c3cccc(F)c3)ccn12)NCCc1c[nH]c2ccccc12
670	O=C(NCc1ccc(F)c(Cl)c1)c1ccc2ncnc(N3CCCC3)c2c1
715	CC(NC(=O)c1ccc(-c2cncnc2)nc1)c1ccccc1 (stereo not given)
647	CCN(CCCNC(=O)C1CCCN(c2ncnc3c2nc2n3CCCCC2)C1)c1cccc(C)c1 (stereo not given)
886	Cc1cccc(CNS(=O)(=O)c2ccc3c(c2)C(=O)N(C)c2ncccc2O3)c1

RP-LC retention time [s]	SMILES
985	CCOc1ccc(C(O)Cn2ccn3nc(-c4ccccc4C)cc3c2=O)cc1 (stereo not given)
759	Cc1cccc(N2CCN(C(=O)c3cn(-c4ccc(C#N)cc4)cn3)CC2)c1
1150	CCCn1cc(S(=O)(=O)N2CCN(c3ccccc3Cl)CC2)c2cccnc21
811	CC(CCc1ccccc1)NC(=O)C1CCN(C(=O)C2Sc3ccccc3NC2=O)CC1 (stereo not given)
685	Cc1ccc(NC(=O)N2CCCC(Cn3c(C4CC4)nc4cccnc43)C2)cc1 (stereo not given)
598	CCOC(=O)Cc1ccc(NC(=O)N2CCC(n3c(C)nc4cccnc43)C2)cc1 (stereo not given)
871	CCOc1ccccc1C(=O)Nc1ccc2c(c1)Sc1ncccc1C(=O)N2C(C)C
969	Cn1cc(C2=CCN(S(=O)(=O)c3cccc(F)c3)CC2)c2cccnc21
902	CC1CCCN(S(=O)(=O)c2ccc(-n3cnc(C(=O)NCC4CC4)c3)nc2)C1 (stereo not given)
670	Cc1ccc(NC(=O)C2CCN(c3cncnc3N3CCOCC3)CC2)cc1C
973	O=c1n(Cc2ccccc2)nc2c(S(=O)(=O)N3CCN(c4ccc(F)cc4)CC3)cccn12
922	COc1ccc(NC(=O)C2CCN(S(=O)(=O)c3ccc4c(c3)sc(=O)n4C(C)C)CC2)cc1
963	COc1ccc(-c2cc3nn(CC(=O)Nc4ccc(C)cc4F)c(=O)n3c(C)n2)cc1
598	O=C(Nc1ccc(Cl)c(Cl)c1)N1CCN(Cc2ccsc2)CC1
726	COc1cccc(N2CCN(C(=O)CN3CCN(Cc4ccccc4)C(=O)C3=O)CC2)c1
1010	CSc1cccc(NC(=O)C2CCCN(c3ccc(=O)n(-c4cccc(Cl)c4)n3)C2)c1 (stereo not given)
842	Cc1cc(C)cc(NC(=O)N2CCC3(CC2)NC(=O)c2ccccc2O3)c1
941	COc1ccc(NC(=O)N2CCCC2c2nc(-c3ccccc3OC)no2)cc1OC (stereo not given)
889	Cc1ccc2c(c1)N(Cc1ccc(F)cc1)N=C(C(=O)N1CCCC1)S2(=O)=O
